Data set [1] concerns rats with post-incisional pain. Briefly: Cold allodynia in rats with post-incisional pain (plantar incision). The format is in vivo, rat. The note with it: 6 mg/kg s.c. 48 h and 24 h before incision; particularly apparent 3 days after injury. An excerpt: In twenty-four rats anesthetized with Isoflurane (5% induction, 2.5% maintenance, 0.8 L/min O2 flow rate; Scott-Cassara, Argentina), the right hind paw plantar skin was cleaned and disinfected. This was followed by a 1-cm longitudinal incision distal to heel and extending towards the toes, as previously described (Xu J, et al., 2011, 24(5): 508-514). The incision involved both plantar skin and fascia. This was followed by identification and longitudinal incision of plantar […] muscle, leaving its insertions intact. After achieving homeostasica, skin was sutured using a 5-0 nylon suture, protected with an antibacterial cream and the animal was returned to its retention cage, under observation, until full recovery from anesthesia.
Rats were subcutaneously administered 6 mg/kg of IMT504, 48 and 24 h before implementing the post-incisional pain model. This was followed by pain-like behavior testing for up to 21 days after injury.
For cold allodynia assessment, the reaction to the application of a drop of acetone onto the plantar surface of the hind paw was used, as previously described. Frequency of withdrawal to cold stimuli was measured.

The test system of data set [2] is naïve rats. Briefly: Tail immersion test (tail heat nociception) in naïve rats. The format is in vivo, rat. The note with it: 20 mg/kg daily x5; observed up to 22 days; 52° C. bath. The protocol:
Naïve (uninjured and untreated; n=16), CFA injured untreated (n=10), and vehicle-treated CFA (n=9) or SNI rats (n=10) were used as controls. Eight naïve rats remained untreated, four were vehicle-treated, and four received a daily dose of 20 mg/kg IMT504 for five consecutive days. Untreated CFA rats received an intradermal hind paw injection of CFA and no further treatment. Vehicle-treated CFA rats received five daily subcutaneous injections of saline (200 μl), starting seven days after injury. Vehicle-treated SNI rats received one single dose of saline (200 ul), starting seven days after injury.
For acute thermal nociception assessment, the tail immersion test was used. The latency of tail-flick reflex to swift immersion of the last 3 cm of the tip of the tail of each rat on a hot bath (52° C.) was measured using a stopwatch (resolution of 0.01 s). This was repeated three times, with 10 s intervals, and an average response was obtained.

“Also recorded” adds a separate entry of the source. Strand notation (5' to 3'): a small letter for the sugar, then the base; units joined by * are phosphorothioate-linked, units joined directly phosphodiester-linked; [ ] holds rarer units or linkages, { } end groups; capitals alone tell only the bases. d = 2'-deoxy (DNA)

“IMT504: synthetic phosphorothioate oligodeoxynucleotide with sequence 5′-TCATCATTTTGTCATTTTGTCATT-3′ (SEQ ID No 1) (DNA dT*dC*dA*dT*dC*dA*dT*dT*dT*dT*dG*dT*dC*dA*dT*dT*dT*dT*dG*dT*dC*dA*dT*dT)”: in data set [1], the “cold allodynia after plantar incision” value was “significant reduction in cold allodynia”. For the same substance, the “tail thermal withdrawal latency in naïve rats” value in data set [2] is “did not shown changes; also recorded: did not show any evident changes”.
